# Data as given in article PMC8344263, “Tetrahydroquinazole-based secondary sulphonamides as carbonic anhydrase inhibitors: synthesis, biological evaluation against isoforms I, II, IV, and IX, and computational studies” (Journal of Enzyme Inhibition and Medicinal Chemistry, 2021).
# pKi: −log10 of the molar value. Several values for one entry are separate records, joined by “and”; a condition that tells them apart may be missing. Identical values can stand only once.
# Legend:
# hCA I = hCA I (Homo sapiens, UniProt P00915); test: stopped-flow CO2 hydrase assay, hCA I; conditions: for Ki ratio CA I/CA IX: selectivity for hCA IX over hCA I
# Chain of hCA I (P00915 whole entry): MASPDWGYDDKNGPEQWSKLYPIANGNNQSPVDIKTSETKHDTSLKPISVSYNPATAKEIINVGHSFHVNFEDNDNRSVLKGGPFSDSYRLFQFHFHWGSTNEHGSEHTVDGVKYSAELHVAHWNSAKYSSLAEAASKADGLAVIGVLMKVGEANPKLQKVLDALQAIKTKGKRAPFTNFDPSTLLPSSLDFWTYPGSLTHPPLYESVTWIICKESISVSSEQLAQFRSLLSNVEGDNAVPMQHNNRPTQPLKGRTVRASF
# Description: (§1) An Applied Photophysics stopped-flow instrument was used for assaying the CA catalysed CO2 hydration activity[28]. […] The uncatalysed rates were determined in the same manner and subtracted from the total observed rates. Stock solutions of inhibitors (10 mM) were prepared in distilled-deionised water with 10% of DMSO and dilutions up to 0.01 µM were done thereafter with the assay buffer. The inhibitor and enzyme solutions were preincubated together for 15 min (standard assay at room temperature) prior to assay, to allow for the formation of the E-I complex. The inhibition constants were obtained by non-linear least-squares methods using PRISM 3 and the Cheng–Prusoff equation and represent the mean from at least three different determinations.
# hCA IV = hCA IV (Homo sapiens, UniProt P22748); test: stopped-flow CO2 hydrase assay, hCA IV; conditions: for Ki ratio CA IV/CA IX: selectivity for hCA IX over hCA IV
# Chain of hCA IV (P22748 19-312): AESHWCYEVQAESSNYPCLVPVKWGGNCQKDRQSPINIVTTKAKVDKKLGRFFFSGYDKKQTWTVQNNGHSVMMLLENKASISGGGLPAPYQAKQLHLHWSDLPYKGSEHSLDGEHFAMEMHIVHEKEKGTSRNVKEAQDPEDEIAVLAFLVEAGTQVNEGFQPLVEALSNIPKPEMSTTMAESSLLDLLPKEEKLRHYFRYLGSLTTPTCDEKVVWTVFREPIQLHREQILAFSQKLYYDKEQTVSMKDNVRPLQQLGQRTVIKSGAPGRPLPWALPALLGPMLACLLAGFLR
# Description: as §1
# hCA II = hCA II (Homo sapiens, UniProt P00918); test: stopped-flow CO2 hydrase assay, hCA II; conditions: for Ki ratio CA II/CA IX: selectivity for hCA IX over hCA II
# Description: as §1
# hCA IX = hCA IX (Homo sapiens, UniProt Q16790); test: stopped-flow CO2 hydrase assay, hCA IX; conditions: mean from three assays, errors ±5–10%
# Description: as §1
Structure (SMILES),pKi (hCA I),melting point [°C],pKi (hCA IV),pKi (hCA II),pKi (hCA IX),Ki ratio CA I/CA IX (hCA I),Ki ratio CA IV/CA IX (hCA IV),Ki ratio CA II/CA IX (hCA II)
"CC1(C)CC(=O)c2cnc(Nc3ccc(S(=O)(=O)Nc4ccc([N+](=O)[O-])cc4)cc3)nc2C1 [Compound 11, 4-((7,7-Dimethyl-5-oxo-5,6,7,8-tetrahydroquinazolin-2-yl)amino)-N-(4-nitrophenyl)benzenesulfonamide]",4.21,264 to 266,< 4.00,5.16,< 4.00,–,–,–
"COc1ccc(NS(=O)(=O)c2ccc(Nc3ncc4c(n3)CCCC4=O)cc2)cc1 [Compound 2, N-(4-methoxyphenyl)-4-((5-oxo-5,6,7,8-tetrahydroquinazolin-2-yl)amino)benzenesulfonamide]",< 4.00,233 to 235,< 4.00,4.30,6.34,–,–,–
"COc1ccc(NS(=O)(=O)c2ccc(Nc3ncc4c(n3)CC(C)(C)CC4=O)cc2)cc1 [Compound 10, 4-((7,7-Dimethyl-5-oxo-5,6,7,8-tetrahydroquinazolin-2-yl)amino)-N-(4-methoxyphenyl)benzenesulfonamide]",4.61,210 to 212,4.11,5.29,4.32,–,–,–
"CC1(C)CC(=O)c2cnc(Nc3ccc(S(N)(=O)=O)cc3)nc2C1 [Compound 16c, 4-((5-oxo-7,7-dimethyl-5,6,7,8-tetrahydroquinazolin-2-yl)amino)benzenesulfonamide]",–,258 to 260,–,–,–,–,–,–
"O=C1CCCc2nc(Nc3ccc(S(=O)(=O)Nc4ccc([N+](=O)[O-])cc4)cc3)ncc21 [Compound 3, N-(4-nitrophenyl)-4-((5-oxo-5,6,7,8-tetrahydroquinazolin-2-yl)amino)benzenesulfonamide]",< 4.00,264 to 266,< 4.00,< 4.00,6.38,–,–,–
"NS(=O)(=O)c1ccc(Nc2ncc3c(n2)CCCC3=O)cc1 [Compound 16a, 4-((5-oxo-5,6,7,8-tetrahydroquinazolin-2-yl)amino)benzenesulfonamide]",–,294 to 296,–,–,–,–,–,–

# Next, values leading:
pKi (hCA I),melting point [°C],pKi (hCA IV),pKi (hCA II),pKi (hCA IX),Ki ratio CA I/CA IX (hCA I),Ki ratio CA IV/CA IX (hCA IV),Ki ratio CA II/CA IX (hCA II),Structure (SMILES)
4.34,83 to 85,< 4.00,4.89,4.80,–,–,–,"Cc1ccc(NS(=O)(=O)c2ccc(Nc3ncc4c(n3)CC(c3ccccc3)CC4=O)cc2)cc1 (centres unmarked) [Compound 8, 4-((5-Oxo-7-phenyl-5,6,7,8-tetrahydroquinazolin-2-yl)amino)-N-(4-tolyl)benzenesulfonamide]"
< 4.00,118 to 120,< 4.00,4.17,5.88,> 75.2,> 75.2,50.7,"O=C1CC(c2ccccc2)Cc2nc(Nc3ccc(S(=O)(=O)Nc4ccc([N+](=O)[O-])cc4)cc3)ncc21 (centres unmarked) [Compound 7, N-(4-nitrophenyl)-4-((5-oxo-7-phenyl-5,6,7,8-tetrahydroquinazolin-2-yl)amino)benzenesulfonamide]"
4.47,103 to 105,< 4.00,4.94,5.76,19.6,> 57.8,6.6,"COc1ccc(NS(=O)(=O)c2ccc(Nc3ncc4c(n3)CC(c3ccccc3)CC4=O)cc2)cc1 (centres unmarked) [Compound 6, N-(4-methoxyphenyl)-4-((5-oxo-7-phenyl-5,6,7,8-tetrahydroquinazolin-2-yl)amino)benzenesulfonamide]"
4.05,281 to 283,< 4.00,4.39,6.32,–,–,–,"O=C1CCCc2nc(Nc3ccc(S(=O)(=O)Nc4ccccc4)cc3)ncc21 [Compound 1, 4-((5-Oxo-5,6,7,8-tetrahydroquinazolin-2-yl)amino)-N-phenylbenzenesulfonamide]"
< 4.00,272 to 274,< 4.00,< 4.00,5.98,> 96 and >100 [CA I/CA IX]^b>96,> 96 and >100 [CA IV/CA IX]^b>96,> 96 and >100 [CA II/CA IX]^b>96,"Cc1ccc(NS(=O)(=O)c2ccc(Nc3ncc4c(n3)CCCC4=O)cc2)cc1 [Compound 4, 4-((5-Oxo-5,6,7,8-tetrahydroquinazolin-2-yl)amino)-N-(4-tolyl)benzenesulfonamide]"
< 4.00,111 to 113,< 4.00,< 4.00,6.35,> 222,> 222,–,"O=C1CC(c2ccccc2)Cc2nc(Nc3ccc(S(=O)(=O)Nc4ccccc4)cc3)ncc21 (centres unmarked) [Compound 5, 4-((5-Oxo-7-phenyl-5,6,7,8-tetrahydroquinazolin-2-yl)amino)-N-phenylbenzenesulfonamide]"
–,214 to 215,–,–,–,–,–,–,"NS(=O)(=O)c1ccc(Nc2ncc3c(n2)CC(c2ccccc2)CC3=O)cc1 (centres unmarked) [Compound 16b, 4-((5-oxo-7-phenyl-5,6,7,8-tetrahydroquinazolin-2-yl)amino)benzenesulfonamide]"
4.15,215 to 217,4.04,5.13,4.33,–,–,–,"CC1(C)CC(=O)c2cnc(Nc3ccc(S(=O)(=O)Nc4ccccc4)cc3)nc2C1 [Compound 9, 4-((7,7-Dimethyl-5-oxo-5,6,7,8-tetrahydroquinazolin-2-yl)amino)-N-phenylbenzenesulfonamide]"
4.07,246 to 248,4.21,4.65,4.71,–,–,–,"Cc1ccc(NS(=O)(=O)c2ccc(Nc3ncc4c(n3)CC(C)(C)CC4=O)cc2)cc1 [Compound 12, 4-((7,7-Dimethyl-5-oxo-5,6,7,8-tetrahydroquinazolin-2-yl)amino)-N-(p-tolyl)benzenesulfonamide]"
